The text below walks through data of ChEMBL document CHEMBL6074651, “Hit-to-lead optimization of 4,5-dihydrofuran-3-sulfonyl scaffold against Leishmania amazonensis. Effect of an aliphatic moiety” (Eur J Med Chem, 2024).

Test system in the first data set: not listed separately
Put plainly: Cytotoxicity against mouse Peritoneal macrophage cell assessed as inhibition of cell viability incubated for 72 hrs by resazurin dye based analysis. To be noted: peritoneal macrophages. Format: toxicity.
As a reminder, the CC50 is the concentration giving 50% cytotoxicity. As for `COC(=O)C1=C(c2ccc(/C(N)=N/O)cc2)OC(C)(Cc2ccccc2)C1` (stereo unspecified), the 50% cytotoxic concentration (CC50) at 72 h amounted to 70.6 µM. Regarding `CCOC(=O)C1=C(c2ccc(/C(N)=N/O)cc2)OC(C)(Cc2ccccc2)C1` (stereo unspecified), the CC50 at 72 h amounted to 112 µM.

Test system in the next data set: not listed separately
Put plainly: Selectivity index, ratio of CC50 for cytotoxicity against murine peritoneal macrophages assessed as inhibition of cell viability to IC50 for antileishmanial activity against leishmania amazonensis intracellular amastigotes assessed as parasite growth inhibition. It counts as toxicity, cell-based, Macrophage. Conditions: mouse, read-out: Ratio CC50/IC50.
As for `COC(=O)C1=C(c2ccc(/C(N)=N/O)cc2)OC(C)(Cc2ccccc2)C1` (stereo unspecified), the selectivity ratio came to 30.7. For the molecule `CCOC(=O)C1=C(c2ccc(/C(N)=N/O)cc2)OC(C)(Cc2ccccc2)C1` (stereo unspecified), the selectivity ratio is 87.8.

The test system of the next data set is Leishmania amazonensis. Put plainly: Antileishmanial activity against leishmania amazonensis promastigotes MHOM/BR/77/LTB0016 assessed as parasite growth inhibition incubated for 72 hrs by resazurin dye based analysis. It counts as functional, organism-based. Conditions: MHOM/BR/77/LTB0016, 72 h.
By IC50 is commonly meant the concentration that inhibits the measured activity by half. For `CCN(CC)C(=O)C1=C(c2ccc(/C(N)=N/O)cc2)OC(C)(Cc2ccccc2)C1` (stereo unspecified), the IC50 stood at 60.4 µM. Consider `CC1(Cc2ccccc2)CC(C(=O)NCCN2CCCC2)=C(c2ccc(/C(N)=N/O)cc2)O1` (stereo unspecified), for which the IC50 came to 102 µM. Regarding `CCCCNC(=O)C1=C(c2ccc(/C(N)=N/O)cc2)OC(C)(Cc2ccccc2)C1` (stereo unspecified), the IC50 was 92.6 µM. Consider `CCCCS(=O)(=O)C1=C(c2ccc(/C(N)=N/O)cc2)OC(C)(Cc2ccccc2)C1` (stereo unspecified), for which the half-maximal inhibitory concentration (IC50) was 63.5 µM. Still for that read-out and setting: as for `COC(=O)C1=C(c2ccc(/C(N)=N/O)cc2)OC(C)(Cc2ccccc2)C1` (stereo unspecified), the figure is 4.7 µM. Still for that read-out and setting: to `CC1(Cc2ccccc2)CC(C(=O)NC2CCCC2)=C(c2ccc(/C(N)=N/O)cc2)O1` (stereo unspecified) belongs 61.1 µM. As for `CC1(Cc2ccccc2)CC(C(=O)N2CCOCC2)=C(c2ccc(/C(N)=N/O)cc2)O1` (stereo unspecified), the IC50 was > 128 µM. Same read-out and setting: as for `CCOC(=O)C1=C(c2ccc(/C(N)=N/O)cc2)OC(C)(Cc2ccccc2)C1` (stereo unspecified), the figure is 6.3 µM; as for `CC1(Cc2ccccc2)CC(C(=O)NC2CCCCC2)=C(c2ccc(/C(N)=N/O)cc2)O1` (stereo unspecified), 43.6 µM.

`CC1(Cc2ccccc2)CC(S(C)(=O)=O)=C(c2ccc(/C(N)=N/O)cc2)O1` (stereo unspecified): the IC50 turned out to be 91.4 µM.

For a further data set, the system named is Leishmania amazonensis. Put plainly: Antileishmanial activity against leishmania amazonensis intracellular amastigotes assessed as parasite growth inhibition measured after 72 hrs by hematological dye based microscopic analysis. Format: functional, organism-based.
Conditions: not given
Regarding `COC(=O)C1=C(c2ccc(/C(N)=N/O)cc2)OC(C)(Cc2ccccc2)C1` (stereo unspecified), the IC50 is 2.3 µM. The same measure, in the same setting: as for `CCOC(=O)C1=C(c2ccc(/C(N)=N/O)cc2)OC(C)(Cc2ccccc2)C1` (stereo unspecified), the figure is 1.3 µM.
